Source: patent US20250034216A1, “STEREOSELECTIVE COVALENT LIGANDS FOR ONCOGENIC AND IMMUNOLOGICAL PROTEINS” (The Scripps Research Institute, priority 2021, published 2025)

What was measured:
[1] = system: mRNA splicing in 22Rv1 cells; assay: RNA sequencing, alternative splicing (rMATS); format: cell-based, human; conditions: 8 hr, RNA-seq
Experimental: RNA sequencing libraries were prepared using the NEBNext Ultra II RNA Library Prep Kit for Illumina following manufacturer's instructions (NEB, Ipswich, MA, USA). mRNAs were first enriched with Oligo(dT) beads. Enriched mRNAs were fragmented for 15 minutes at 94° C. First strand and second strand cDNAs were subsequently synthesized. cDNA fragments were end repaired and adenylated at 3′ends, and universal adapters were ligated to cDNA fragments, followed by index addition and library enrichment by limited-cycle PCR. The sequencing libraries were validated on the Agilent TapeStation (Agilent Technologies, Palo Alto, CA, USA), and quantified by using Qubit 2.0 Fluorometer (Invitrogen, Carlsbad, CA) as well as by quantitative PCR (KAPA Biosystems, Wilmington, MA, USA). FASTQ files were first trimmed using Trim_galore (v0.6.4) to remove sequencing adapters and low quality (Q<15) reads. Trimmed sequencing reads were aligned to the human Hg19 reference genome (GENCODE, GRCh37.p13) using STAR (v2.7.5). SAM files were subsequently converted to BAM files, sorted, and indexed using samtools (v1.9). […] Read counting across genomic features was performed using featureCounts (part of the subread package; v1.5.0) using the following parameters: -p -T 20 -O -F GTF -t exon. […]
For quantification of alternative RNA splicing, BAM files generated by STAR/Samtools were analyzed using rMATS (v4.1.1) using the GENCODE (v19) GTF annotation for Hg19 (GRCh37.p13) and the following parameters: -t paired --libType fr-unstranded—readLength 150—novelSS. To utilize reads shorted than 150b.p. resulting from adapter and/or QC trimming by trim_galore, rMATS was programmed to accept soft-clipped reads of variable length. Enumeration of isoform counts was performed using only reads that span the splice junction directly. To identify high confidence AS events, events were considered significant if (i) the inclusion level difference was greater than 20% compared to DMSO, (ii) the False Discovery Rate (FDR) was smaller than 0.05, and (iii) there were a minimum of 20 reads mapping to the splice junction. […]

SF3B1 1123 = biological target: T1, SF3B1 1123 (Homo sapiens, UniProt O75533+Q7RTV0); assay: IA-DTB cysteine engagement, GluC + trypsin digest; format: binding; conditions: 22Rv1 cells
T1 construct: Cysteine engagement data from 22Rv1 cells treated; endogenous in cells; host or cells: 22Rv1
T1 sequence (O75533 whole entry): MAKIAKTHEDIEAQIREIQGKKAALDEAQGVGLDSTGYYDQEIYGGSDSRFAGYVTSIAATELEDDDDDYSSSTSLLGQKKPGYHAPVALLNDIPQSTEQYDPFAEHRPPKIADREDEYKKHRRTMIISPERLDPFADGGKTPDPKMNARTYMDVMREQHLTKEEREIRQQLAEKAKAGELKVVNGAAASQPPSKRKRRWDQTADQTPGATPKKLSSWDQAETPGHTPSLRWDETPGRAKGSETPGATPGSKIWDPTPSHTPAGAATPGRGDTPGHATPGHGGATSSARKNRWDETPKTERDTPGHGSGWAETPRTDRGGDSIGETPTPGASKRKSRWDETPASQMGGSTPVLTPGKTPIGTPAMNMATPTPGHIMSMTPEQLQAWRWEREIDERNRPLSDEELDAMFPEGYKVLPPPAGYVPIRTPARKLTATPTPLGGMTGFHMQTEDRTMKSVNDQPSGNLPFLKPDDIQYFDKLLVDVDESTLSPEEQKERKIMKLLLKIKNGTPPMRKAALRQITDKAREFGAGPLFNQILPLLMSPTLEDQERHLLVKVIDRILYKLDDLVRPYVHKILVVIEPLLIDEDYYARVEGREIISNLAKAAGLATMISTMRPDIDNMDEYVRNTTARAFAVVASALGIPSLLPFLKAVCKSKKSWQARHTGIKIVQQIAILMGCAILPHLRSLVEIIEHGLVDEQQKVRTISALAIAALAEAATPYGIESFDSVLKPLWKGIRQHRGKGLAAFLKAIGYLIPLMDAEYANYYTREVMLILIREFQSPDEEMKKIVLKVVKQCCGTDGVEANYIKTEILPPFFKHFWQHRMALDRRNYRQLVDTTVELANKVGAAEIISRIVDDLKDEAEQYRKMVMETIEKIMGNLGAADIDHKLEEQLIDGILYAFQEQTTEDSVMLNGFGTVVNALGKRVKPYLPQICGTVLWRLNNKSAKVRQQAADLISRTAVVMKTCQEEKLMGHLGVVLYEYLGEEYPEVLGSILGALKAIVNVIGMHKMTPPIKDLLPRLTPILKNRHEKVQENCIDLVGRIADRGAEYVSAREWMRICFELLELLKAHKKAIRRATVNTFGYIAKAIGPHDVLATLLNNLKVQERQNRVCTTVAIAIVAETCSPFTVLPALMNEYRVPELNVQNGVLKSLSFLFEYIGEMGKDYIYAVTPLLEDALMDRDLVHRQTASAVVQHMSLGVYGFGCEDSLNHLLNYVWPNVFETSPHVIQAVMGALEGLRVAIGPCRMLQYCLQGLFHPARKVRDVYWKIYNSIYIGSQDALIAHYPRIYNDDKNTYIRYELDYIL
T1 sequence (Q7RTV0 whole entry): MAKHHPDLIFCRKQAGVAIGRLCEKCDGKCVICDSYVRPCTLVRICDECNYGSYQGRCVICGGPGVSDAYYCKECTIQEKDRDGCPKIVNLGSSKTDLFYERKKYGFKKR
T1 sequence (Q15393 whole entry partner): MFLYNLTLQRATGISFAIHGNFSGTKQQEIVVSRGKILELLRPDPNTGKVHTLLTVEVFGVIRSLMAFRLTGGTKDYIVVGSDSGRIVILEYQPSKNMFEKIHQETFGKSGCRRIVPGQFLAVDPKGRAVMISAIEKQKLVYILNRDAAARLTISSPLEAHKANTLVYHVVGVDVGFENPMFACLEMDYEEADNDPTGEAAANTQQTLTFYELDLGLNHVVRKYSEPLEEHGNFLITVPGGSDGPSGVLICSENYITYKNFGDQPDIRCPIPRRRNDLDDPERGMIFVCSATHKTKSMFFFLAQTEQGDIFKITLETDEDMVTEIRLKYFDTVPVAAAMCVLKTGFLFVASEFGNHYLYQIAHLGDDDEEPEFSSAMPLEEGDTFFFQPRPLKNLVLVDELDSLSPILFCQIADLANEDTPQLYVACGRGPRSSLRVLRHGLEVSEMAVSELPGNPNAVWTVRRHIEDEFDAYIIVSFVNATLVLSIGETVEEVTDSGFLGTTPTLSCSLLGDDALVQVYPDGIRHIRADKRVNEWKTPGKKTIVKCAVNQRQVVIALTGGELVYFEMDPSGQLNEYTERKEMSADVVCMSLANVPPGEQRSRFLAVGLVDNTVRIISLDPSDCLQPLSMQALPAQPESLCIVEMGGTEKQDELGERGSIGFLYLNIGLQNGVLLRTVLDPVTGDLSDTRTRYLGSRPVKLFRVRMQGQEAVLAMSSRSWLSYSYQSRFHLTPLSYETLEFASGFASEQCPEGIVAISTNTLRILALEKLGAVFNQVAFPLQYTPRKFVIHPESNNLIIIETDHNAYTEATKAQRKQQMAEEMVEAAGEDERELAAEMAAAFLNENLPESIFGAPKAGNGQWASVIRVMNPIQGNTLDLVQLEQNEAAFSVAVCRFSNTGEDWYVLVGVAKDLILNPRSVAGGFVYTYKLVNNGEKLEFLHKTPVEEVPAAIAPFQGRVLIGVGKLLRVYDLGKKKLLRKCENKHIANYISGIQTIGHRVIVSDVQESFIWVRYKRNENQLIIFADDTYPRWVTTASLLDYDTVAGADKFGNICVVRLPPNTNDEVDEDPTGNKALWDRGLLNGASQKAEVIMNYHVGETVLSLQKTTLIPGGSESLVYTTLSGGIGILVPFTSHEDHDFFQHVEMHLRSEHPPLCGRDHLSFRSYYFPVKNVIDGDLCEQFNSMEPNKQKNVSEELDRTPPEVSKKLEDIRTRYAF
T1 sequence (Q9BWJ5 whole entry partner): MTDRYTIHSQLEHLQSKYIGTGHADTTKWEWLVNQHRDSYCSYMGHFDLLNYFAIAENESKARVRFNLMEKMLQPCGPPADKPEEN
Experimental: (§1) Sample preparation: Cells (adherent: 15 cm dishes, suspension: 2 million cells/mL) were treated with electrophilic probes in situ for indicated times and concentrations, washed with ice-cold PBS, and flash frozen in liquid nitrogen. Cell pellets were lysed by sonication (8 pulses, 40% power) in 500 μL ice-cold PBS supplemented with cOmplete protease inhibitors (1 tablet/10 mL of PBS). Whole cell lysates protein content was measured using a standard DC protein assay (Bio-Rad) and 500 μL (2 mg/mL protein content) were treated with 5 μL of 10 mM 1A-DTB (in DMSO) for 1 h at ambient temperature with occasional vortexing. Samples were methanol-chloroform precipitated with the addition of 500 μL ice-cold MeOH and 200 μL CHCl3, vortexed, and centrifuged (10 min, 10,000 g). Without disrupting the protein disk, both top and bottom layers were aspirated and the protein disk was washed with 1 mL ice-cold MeOH and centrifuged (10 min, 10,000 g). The pellets were allowed to air dry, and then re-suspended in 90 μL buffer (9 M urea, 10 mM DTT, 50 mM TEAB pH 8.5). Samples were reduced by heating at 65 C for 20 minutes and water bath sonicated as needed to resuspend the protein pellets, followed by alkylation via addition of 10 μL (500 mM) iodoacetamide and incubated at 37 C for 30 min with shaking. Samples were briefly centrifuged, and probe sonicated once more to ensure complete resuspension, and then diluted with 300 μL buffer (50 mM TEAB pH 8.5) to reach final concentration of 2 M urea. […] Digested samples were then diluted with 300 μL wash buffer (50 mM TEAB pH 8.5, 150 mM NaCl, 0.2% NP-40) containing streptavidin-agarose beads (50 μL of 50% slurry in wash buffer) and were rotated at room temperature for 2 hours. Enriched samples were pelleted by centrifugation (2000 g, 2 min) and transferred to BioSpin columns and washed (3×1 mL wash buffer, 3×1 mL PBS, 3×1 mL water). Enriched peptides were eluted by 300 μL 50% acetonitrile with 0.1% formic acid and eluate was evaporated to dryness via speedvac. IA-DTB labeled and enriched peptides were resuspended in 100 μL EPPS buffer (200 mM, pH 8.0) with 30% acetonitrile, vortexed, and water bath sonicated. Samples were TMT labeled with 3 μL of corresponding TMT tag (5 mg tag resuspended in 256 μL acetonitrile), vortexed, and incubated at room temperature for 1 hour. TMT labeling was quenched with the addition of hydroxylamine (5 μL 5% solution in H2O) and incubated for 15 minutes at room temperature. Samples were then acidified with 5 μL formic acid, combined and dried using a SpeedVac. Samples were desalted via Sep-Pak and then high pH fractionated.
(§2) Data processing: Cysteine engagement ratios (probe vs DMSO) were calculated for each peptide-spectra match by dividing each TMT reporter ion intensity by the average intensity for the channels corresponding to DMSO treatment. Peptide-spectra matches were then grouped based on protein ID and residue number (e.g., PSME1 C22), […] ion intensities for the DMSO channels <10,000, coefficient of variation for DMSO channels >0.5, […] TMT reporter ion intensities were normalized to the median summed signal intensity across channels.
(§3) Samples were analyzed by liquid chromatography tandem mass-spectrometry using an Orbitrap Fusion mass spectrometer (Thermo Scientific) coupled to an UltiMate 3000 Series Rapid Separation LC system and autosampler (Thermo Scientific Dionex). The peptides were eluted onto a capillary column (75 μm inner diameter fused silica, packed with C18 (Waters, Acquity BEH C18, 1.7 μm, 25 cm)) or an EASY-Spray HPLC column (Thermo ES902, ES903) using an Acclaim PepMap 100 (Thermo 164535) loading column, and separated at a flow rate of 0.25 μL/min. Data was acquired using an MS3-based TMT method on Orbitrap Fusion or Orbitrap Eclipse Tribrid Mass Spectrometers. […]

SF3B1 796 = biological target: T2, SF3B1 796 (Homo sapiens, UniProt O75533); assay: IA-DTB cysteine engagement, GluC + trypsin digest; format: binding; conditions: 22Rv1 cells
T2 construct: endogenous in cells; host or cells: 22Rv1
T2 sequence (O75533 whole entry): as the sequence (O75533 whole entry) above
Experimental: as §1, §2, §3

percent engagement relative to DMSO, SF3B1 1123 (SF3B1 1123; 5 uM) [%]	percent engagement relative to DMSO, SF3B1 1123 (SF3B1 1123; 20 uM) [%]	percent engagement relative to DMSO, SF3B1 796 (SF3B1 796; 5 uM) [%]	percent engagement relative to DMSO, SF3B1 796 (SF3B1 796; 20 uM) [%]	Compound	mRNA splicing changes [1]
1.425	21.84	6.755	7.34	C=CC(=O)N1[C@@H](c2ccc3c(c2)OCO3)c2[nH]c3ccccc3c2C[C@@H]1C(=O)N1CCOCC1 [WX-02-43, 1-((1S,3R)-1-(benzo[d][1,3]dioxol-5-yl)-3-(morpholine-4-carbonyl)-1,3,4,9-tetrahydro-2H-pyrido [3,4-b]indol-2-yl)prop-2-en-1-one]	No such splicing effects were observed
5.965	21.005	−6.42	−5.075	C=CC(=O)N1[C@H](c2ccc3c(c2)OCO3)c2[nH]c3ccccc3c2C[C@H]1C(=O)N1CCOCC1 [WX-02-23, 1-((1R,3S)-1-(benzo[d][1,3]dioxol-S-yl)-3-(morpholine-4-carbonyl)-1,3,4,9-tetrahydro-2H-pyrido [3,4-b]indol-2-yl)prop-2-en-1-one]	induction of both intron retention and exon skipping events
